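Each compound was tested at five concentrations against cells in 96-well plates for 48 hours. TGI: total growth inhibition.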
Key:
Assay in all cases: growth of human tumour cells (NCI), 48 h
NCI-H226 lung = tested on: NCI-H226 lung
T-47D breast = tested on: T-47D breast
PC-3 prostate = tested on: PC-3 prostate
IGROV1 ovarian = tested on: IGROV1 ovarian
OVCAR-4 ovarian = tested on: OVCAR-4 ovarian
LOX IMVI melanoma = tested on: LOX IMVI melanoma
A549 NSCLC = tested on: A549 NSCLC
SF-539 CNS = tested on: SF-539 CNS
SW-620 colon = tested on: SW-620 colon
MALME-3M melanoma = tested on: MALME-3M melanoma
OVCAR-3 ovarian = tested on: OVCAR-3 ovarian
SK-MEL-28 melanoma = tested on: SK-MEL-28 melanoma
MDA-N = tested on: MDA-N
KM12 colon = tested on: KM12 colon
UACC-257 melanoma = tested on: UACC-257 melanoma
SNB-19 CNS = tested on: SNB-19 CNS
HL-60(TB) leukemia = tested on: HL-60(TB) leukemia
RPMI-8226 leukemia = tested on: RPMI-8226 leukemia
HOP-92 NSCLC = tested on: HOP-92 NSCLC
A498 renal = tested on: A498 renal
CCRF-CEM leukemia = tested on: CCRF-CEM leukemia
HT29 colon = tested on: HT29 colon
NCI/ADR-RES ovarian = tested on: NCI/ADR-RES ovarian
SNB-75 CNS = tested on: SNB-75 CNS
MCF7 breast = tested on: MCF7 breast
SF-295 CNS = tested on: SF-295 CNS
SN12C renal = tested on: SN12C renal
SK-MEL-2 melanoma = tested on: SK-MEL-2 melanoma
HOP-62 NSCLC = tested on: HOP-62 NSCLC
UACC-62 melanoma = tested on: UACC-62 melanoma
786-0 renal = tested on: 786-0 renal
HCT-15 colon = tested on: HCT-15 colon
SR leukemia = tested on: SR leukemia
CAKI-1 renal = tested on: CAKI-1 renal
MOLT-4 leukemia = tested on: MOLT-4 leukemia
UO-31 renal = tested on: UO-31 renal
OVCAR-5 ovarian = tested on: OVCAR-5 ovarian
DU-145 prostate = tested on: DU-145 prostate
SK-MEL-5 melanoma = tested on: SK-MEL-5 melanoma
NCI-H23 lung = tested on: NCI-H23 lung
HCT-116 colon = tested on: HCT-116 colon
U251 CNS = tested on: U251 CNS
M14 melanoma = tested on: M14 melanoma
TK-10 renal = tested on: TK-10 renal
K-562 leukemia = tested on: K-562 leukemia
EKVX NSCLC = tested on: EKVX NSCLC
SF-268 CNS = tested on: SF-268 CNS
NCI-H522 lung = tested on: NCI-H522 lung
HS 578T breast = tested on: HS 578T breast
ACHN renal = tested on: ACHN renal
OVCAR-8 ovarian = tested on: OVCAR-8 ovarian
BT-549 breast = tested on: BT-549 breast
HCC-2998 colon = tested on: HCC-2998 colon
SK-OV-3 ovarian = tested on: SK-OV-3 ovarian
COLO 205 colon = tested on: COLO 205 colon
RXF 393 renal = tested on: RXF 393 renal
MDA-MB-435 = tested on: MDA-MB-435
NCI-H460 lung = tested on: NCI-H460 lung
MDA-MB-231 breast = tested on: MDA-MB-231 breast

## C=C(C)C1CC=C(C)C2(C1)OCC(C)(C)C(C)O2 (centres undefined)
NCI-H226 lung
  TGI: 35.7 µM
T-47D breast
  TGI: 55.4 µM
PC-3 prostate
  TGI: > 100 µM
IGROV1 ovarian
  TGI: 48.2 µM
OVCAR-4 ovarian
  TGI: 41.1 µM
LOX IMVI melanoma
  TGI: 31.8 µM
A549 NSCLC
  TGI: 34.5 µM
SF-539 CNS
  TGI: 48 µM
SW-620 colon
  TGI: 43.2 µM
MALME-3M melanoma
  TGI: 29.5 µM
OVCAR-3 ovarian
  TGI: 29.9 µM
SK-MEL-28 melanoma
  TGI: 63.9 µM
MDA-N
  TGI: 47.4 µM
KM12 colon
  TGI: 32.9 µM
UACC-257 melanoma
  TGI: 81.9 µM
SNB-19 CNS
  TGI: 33.3 µM
HL-60(TB) leukemia
  TGI: 35.5 µM
RPMI-8226 leukemia
  TGI: 43.2 µM
HOP-92 NSCLC
  TGI: 23.6 µM
A498 renal
  TGI: 28.9 µM
CCRF-CEM leukemia
  TGI: 83.4 µM
HT29 colon
  TGI: 33.2 µM
NCI/ADR-RES ovarian
  TGI: 37.5 µM
SNB-75 CNS
  TGI: 48.2 µM
MCF7 breast
  TGI: 33.9 µM
SF-295 CNS
  TGI: 48.2 µM
SN12C renal
  TGI: 33.4 µM
SK-MEL-2 melanoma
  TGI: 34.2 µM
HOP-62 NSCLC
  TGI: 31.8 µM
UACC-62 melanoma
  TGI: 30.4 µM
786-0 renal
  TGI: 33 µM
HCT-15 colon
  TGI: 33.9 µM
SR leukemia
  TGI: 43.6 µM
CAKI-1 renal
  TGI: 36.7 µM
MOLT-4 leukemia
  TGI: 51.2 µM
UO-31 renal
  TGI: 40.8 µM
OVCAR-5 ovarian
  TGI: 38.5 µM
DU-145 prostate
  TGI: > 100 µM
SK-MEL-5 melanoma
  TGI: 29.2 µM
NCI-H23 lung
  TGI: 48.4 µM
HCT-116 colon
  TGI: 31.1 µM
U251 CNS
  TGI: 31 µM
M14 melanoma
  TGI: 47.1 µM
TK-10 renal
  TGI: > 100 µM
K-562 leukemia
  TGI: 45.8 µM
EKVX NSCLC
  TGI: 62.3 µM
SF-268 CNS
  TGI: 70.9 µM
NCI-H522 lung
  TGI: 46.4 µM
HS 578T breast
  TGI: > 100 µM
ACHN renal
  TGI: 40.9 µM
OVCAR-8 ovarian
  TGI: 31.7 µM
BT-549 breast
  TGI: 36 µM
HCC-2998 colon
  TGI: 93.2 µM
SK-OV-3 ovarian
  TGI: 53.7 µM
COLO 205 colon
  TGI: 34.5 µM
RXF 393 renal
  TGI: 27.3 µM
MDA-MB-435
  TGI: 48 µM
NCI-H460 lung
  TGI: > 100 µM
MDA-MB-231 breast
  TGI: 46.3 µM

Reference: PubChem BioAssay (NCI)
